Measurements taken from patent publication US11549123B2, “Plant EPSP synthases and methods of use” (PIONEER HI-BRED INTERNATIONAL, INC., priority 2015, dated 2023).
Changes are numbered by the printed parent chain.

Columns and labels:
[1] = system: EPSPS with TIPS mutations (T103I and P107S, as in GA21); details: Funke et al. 2009; Yu et al. 2015; cited from earlier work
[2] = biological target: Zea mays EPSPS variant 241A 278G (Zea mays, UniProt O24566, K240A/T277G); test: EPSPS reaction rate with or without 10 uM glyphosate, 241A 278G; assay type: biochemical; details: pH 7; read-out: Reaction rate with 10 μM glyph, % no glyph; note: 50 µM PEP and S3P
Chain of Zea mays EPSPS variant 241A 278G (O24566 entry or part of it K240A/T277G): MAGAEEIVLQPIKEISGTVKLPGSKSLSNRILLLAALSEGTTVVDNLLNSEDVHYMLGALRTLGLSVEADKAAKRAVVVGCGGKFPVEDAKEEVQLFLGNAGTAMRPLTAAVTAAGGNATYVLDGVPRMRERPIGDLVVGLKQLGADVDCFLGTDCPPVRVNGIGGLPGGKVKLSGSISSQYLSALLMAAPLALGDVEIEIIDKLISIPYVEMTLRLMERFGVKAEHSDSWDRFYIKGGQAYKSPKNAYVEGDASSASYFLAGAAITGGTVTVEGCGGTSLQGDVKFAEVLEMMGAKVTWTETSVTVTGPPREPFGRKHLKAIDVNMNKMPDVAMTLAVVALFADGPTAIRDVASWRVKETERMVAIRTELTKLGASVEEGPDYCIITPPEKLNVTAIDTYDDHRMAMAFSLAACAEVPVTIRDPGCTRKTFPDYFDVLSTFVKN

[3] = biological target: Zea mays EPSPS variant 311S (Zea mays, UniProt O24566, P310S); test: EPSPS reaction rate with or without 10 uM glyphosate, 311S; assay type: biochemical; details: pH 7; read-out: Reaction rate with 10 μM glyph, % no glyph; note: 50 µM PEP and S3P
Chain of Zea mays EPSPS variant 311S (O24566 entry or part of it P310S): as the sequence (O24566 entry or part of it K240A/T277G) above, with A241K, G278T, P311S counted along it

[4] = biological target: T1, Zea mays EPSPS variant Zm-T103I (Zea mays, UniProt O24566, T102I); test: Substrate saturation kinetic analysis with glyphosate, Zm-T103I; assay type: biochemical
T1 construct: native maize plus T103I; E. coli BL21(DE3), Ni-NTA purified
T1 sequence (O24566 with tags, fused parts or gaps T102I): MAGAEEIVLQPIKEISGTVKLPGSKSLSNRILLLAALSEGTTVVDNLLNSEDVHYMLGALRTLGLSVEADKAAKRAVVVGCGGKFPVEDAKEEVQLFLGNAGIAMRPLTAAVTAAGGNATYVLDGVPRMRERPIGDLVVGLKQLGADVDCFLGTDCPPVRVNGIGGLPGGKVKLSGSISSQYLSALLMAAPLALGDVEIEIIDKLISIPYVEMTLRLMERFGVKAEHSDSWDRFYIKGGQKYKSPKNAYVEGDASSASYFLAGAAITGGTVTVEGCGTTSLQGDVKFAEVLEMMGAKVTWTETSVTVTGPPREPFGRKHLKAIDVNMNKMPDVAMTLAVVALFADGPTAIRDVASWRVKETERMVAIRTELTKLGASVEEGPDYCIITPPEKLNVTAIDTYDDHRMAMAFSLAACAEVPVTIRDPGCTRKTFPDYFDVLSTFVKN

[5] = biological target: T2, Zea mays EPSPS variant Zm-P107S (Zea mays, UniProt O24566, P106S); test: Rapid two-rate method for (kcat/KM)*KI, Zm-P107S; assay type: biochemical
T2 construct: native maize plus P107S; E. coli BL21(DE3), Ni-NTA purified
T2 sequence (O24566 with tags, fused parts or gaps P106S): T1 sequence (O24566 with tags, fused parts or gaps T102I) with I103T, P107S
Source text: (§1) There are several practical considerations for accurately estimating (kcat/KM)*KI with the rapid method. […] 2) The inhibitor concentration must be adjusted so as to obtain a degree of inhibition that minimally amplifies the error in the term v0-vi in Equation 3. If inhibition is too little, v0-vi will be small, and the error in the multiplier vi×v0/(v0-vi) will be large. […] 3) Substrate concentration should be set at the approximate KM of the parental variant(s), subject to the sensitivity of the assay. High substrate concentration obscures sensitivity to the inhibitor and reduces stringency for capturing improvements in KM. Depending on the necessity for speed, there exists opportunity for customizing enzyme and inhibitor concentrations. […] The rapid method was repeated for those and obtained data that correlated better with data obtained by substrate saturation analysis. For screening purposes however, that correlation step is not necessary. Conditions can be set so that variants with a pre-determined minimal fitness level are accurately quantified.
(§2) In Table 15, parameters above the heavy line for the rapid method were obtained under standard conditions. For variants shown below the heavy line, the rapid analysis was repeated with enzyme or glyphosate concentrations adjusted as needed to generate sufficient signal within the limits for linear initial rates.

[6] = biological target: T3, Zea mays EPSPS variant Zm-H6 (868-H6) with K246G (H6-K246G) (Zea mays, UniProt O24566, A1R/A3W/A415G/A71Q/D401G/E301S/E390G/G101A/I207L/K245G/K83R/L97C/T278A/T360S/T440Q/V437R); test: Rapid two-rate method for (kcat/KM)*KI, H6-K246G; assay type: biochemical; details: [E] 0.07 uM, [Gly] 1000 uM
T3 construct: 868-H6 plus K246G; E. coli BL21(DE3), Ni-NTA purified
T3 sequence (O24566 with tags, fused parts or gaps A1R/A3W/A71Q/K83R/L97C/G101A/I207L/K245G/T278A/E301S/T360S/E390G/D401G/A415G/V437R/T440Q): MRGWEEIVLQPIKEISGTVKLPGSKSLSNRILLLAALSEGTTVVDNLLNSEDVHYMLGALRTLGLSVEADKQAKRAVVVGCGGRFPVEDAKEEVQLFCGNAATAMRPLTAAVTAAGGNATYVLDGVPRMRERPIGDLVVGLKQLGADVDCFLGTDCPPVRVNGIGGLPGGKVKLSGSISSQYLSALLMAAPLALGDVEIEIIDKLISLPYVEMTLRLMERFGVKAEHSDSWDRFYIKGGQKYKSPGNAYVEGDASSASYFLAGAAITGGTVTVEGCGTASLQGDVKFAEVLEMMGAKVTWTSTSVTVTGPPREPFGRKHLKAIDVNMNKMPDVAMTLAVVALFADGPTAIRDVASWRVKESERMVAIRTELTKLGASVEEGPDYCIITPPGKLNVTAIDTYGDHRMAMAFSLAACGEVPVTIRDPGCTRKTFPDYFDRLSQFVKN
Source text: as §1, §2

Structure (SMILES)	kcat relative to native kcat [1] [%]	activity at 10 µM [2] [%]	activity at 10 µM [3] [%]	Ki [4] [µM]	(kcat/KM)*KI ([4]; substrate saturation, Zm-T103I)	(kcat/KM)*KI ([5]; rapid method repeated, [E] 0.007 uM, [Gly] 5 uM)	(kcat/KM)*KI ([5]; rapid method, [E] 0.07 uM, [Gly] 1000 uM)	(kcat/KM)*KI [6]
C=C(OP(=O)(O)O)C(=O)O [PEP, phosphoenolpyruvate]	~5	–	–	–	–	–	–	–
O=C(O)CNCP(=O)(O)O [glyphosate, N-phosphonomethylglycine]	–	3.75	4.37	53	99	40	72	3495
